Test results from patent US10004701B2, “Methods and compositions for treating infection” (UNIVERSITY OF ROCHESTER, priority 2012, dated 2018).
Values after ≈ are worked out from the molar mass of the structure shown. Read-outs that look alike come from different tables or passages of the source.

Legend:
[1] = tested on: Enterococcus faecium 824-05; assay: MIC testing; assay type: cell-based; conditions: 82405
[2] = tested on: Pseudomonas aeruginosa PA01; assay: MIC testing; assay type: cell-based
E. faecium = assay: AK assay 384-well format, Prestwick library screening; assay type: cell-based, Enterococcus faecium; conditions: for fold induction at 50 µM: Enterococcus faecium, 3 h, 50 μM final drug concentration, cutoff for positive-scoring molecules 3-fold increase, read-out: AK-based Prestwick Library Screening Results, E. faecium (increase in extracellular AK activity)
[3] = tested on: S. aureus strain USA300-0114; assay: as above; assay type: cell-based, Staphylococcus aureus; conditions: Staphylococcus aureus, USA300, 3 h, 50 μM final drug concentration, cutoff for positive-scoring molecules 3-fold increase, read-out: AK-based Prestwick Library Screening Results, S. aureus (increase in extracellular AK activity)
K. pneumoniae = assay: as above; assay type: cell-based, Klebsiella pneumoniae; conditions: Klebsiella pneumoniae, 3 h, 50 μM final drug concentration, cutoff for positive-scoring molecules 3-fold increase, read-out: AK-based Prestwick Library Screening Results, K. pneumoniae (increase in extracellular AK activity)
[4] = tested on: A. baumannii strain 98-37-09; assay: as above; assay type: cell-based, Acinetobacter baumannii; conditions: Acinetobacter baumannii, 983709, 3 h, 50 μM final drug concentration, cutoff for positive-scoring molecules 3-fold increase, read-out: AK-based Prestwick Library Screening Results, A. baumannii (increase in extracellular AK activity)
P. aeruginosa = assay: as above; assay type: cell-based, Pseudomonas aeruginosa; conditions: for fold induction at 50 µM: Pseudomonas aeruginosa, 3 h, 50 μM final drug concentration, cutoff for positive-scoring molecules 3-fold increase, read-out: AK-based Prestwick Library Screening Results, P. aeruginosa (increase in extracellular AK activity)
E. cloacae = assay: as above; assay type: cell-based, Enterobacter cloacae; conditions: Enterobacter cloacae, 3 h, 50 μM final drug concentration, cutoff for positive-scoring molecules 3-fold increase, read-out: AK-based Prestwick Library Screening Results, E. cloacae (increase in extracellular AK activity)
E. coli = assay: as above; assay type: cell-based, Escherichia coli; conditions: Escherichia coli, 3 h, 50 μM final drug concentration, cutoff for positive-scoring molecules 3-fold increase, read-out: AK-based Prestwick Library Screening Results, E. coli (increase in extracellular AK activity)
Staphylococcus aureus = assay: MIC testing; assay type: cell-based
[5] = tested on: Klebsiella pneumoniae cKP1; assay: MIC testing; assay type: cell-based
[6] = tested on: Acinetobacter baumannii 98-37-09; assay: MIC testing; assay type: cell-based; conditions: 983709; Acinetobacter baumannii 98-37-09; read-out: MIC
[7] = tested on: Enterobacter cloacae PMD1001; assay: MIC testing; assay type: cell-based
Escherichia coli 8295 [8] = assay: MIC testing; assay type: cell-based
[9] = tested on: Klebsiella pneumoniae cKP1; assay: AK assay 96-well format; assay type: cell-based
[10] = tested on: Enterobacter cloacae PMD1001; assay: AK assay 96-well format; assay type: cell-based
Escherichia coli 8295 [11] = assay: AK assay 96-well format; assay type: cell-based
[12] = tested on: Pseudomonas aeruginosa PA01; assay: AK assay 96-well format; assay type: cell-based
S. aureus = assay: Minimum Inhibitory Concentration (MIC) testing, terfenadine study; assay type: cell-based; conditions: Staphylococcus aureus, 16 h
S. aureus DNA gyrase = target: T1, S. aureus DNA gyrase (Staphylococcus aureus, UniProt P0A0K8+P20831); assay: S. aureus DNA gyrase supercoiling assay (TopoGEN); assay type: biochemical
T1 construct: purchased TopoGEN
T1 sequence (P0A0K8 whole entry): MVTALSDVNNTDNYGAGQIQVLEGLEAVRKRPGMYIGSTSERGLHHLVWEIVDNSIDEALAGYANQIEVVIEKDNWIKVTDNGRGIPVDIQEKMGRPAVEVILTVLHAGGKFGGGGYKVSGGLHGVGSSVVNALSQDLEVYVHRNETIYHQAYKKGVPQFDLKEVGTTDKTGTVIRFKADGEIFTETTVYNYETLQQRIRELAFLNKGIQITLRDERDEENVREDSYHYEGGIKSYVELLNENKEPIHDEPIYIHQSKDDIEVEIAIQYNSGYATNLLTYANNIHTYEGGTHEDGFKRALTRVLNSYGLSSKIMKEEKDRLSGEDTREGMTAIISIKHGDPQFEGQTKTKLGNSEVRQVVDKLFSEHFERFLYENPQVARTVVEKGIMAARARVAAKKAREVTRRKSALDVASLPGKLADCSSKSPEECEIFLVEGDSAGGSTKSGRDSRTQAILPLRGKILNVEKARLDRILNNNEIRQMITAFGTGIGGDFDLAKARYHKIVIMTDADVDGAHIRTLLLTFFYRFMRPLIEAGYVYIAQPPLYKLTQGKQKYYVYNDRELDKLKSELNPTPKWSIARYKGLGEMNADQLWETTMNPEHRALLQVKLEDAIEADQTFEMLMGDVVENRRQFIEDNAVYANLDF
T1 sequence (P20831 whole entry): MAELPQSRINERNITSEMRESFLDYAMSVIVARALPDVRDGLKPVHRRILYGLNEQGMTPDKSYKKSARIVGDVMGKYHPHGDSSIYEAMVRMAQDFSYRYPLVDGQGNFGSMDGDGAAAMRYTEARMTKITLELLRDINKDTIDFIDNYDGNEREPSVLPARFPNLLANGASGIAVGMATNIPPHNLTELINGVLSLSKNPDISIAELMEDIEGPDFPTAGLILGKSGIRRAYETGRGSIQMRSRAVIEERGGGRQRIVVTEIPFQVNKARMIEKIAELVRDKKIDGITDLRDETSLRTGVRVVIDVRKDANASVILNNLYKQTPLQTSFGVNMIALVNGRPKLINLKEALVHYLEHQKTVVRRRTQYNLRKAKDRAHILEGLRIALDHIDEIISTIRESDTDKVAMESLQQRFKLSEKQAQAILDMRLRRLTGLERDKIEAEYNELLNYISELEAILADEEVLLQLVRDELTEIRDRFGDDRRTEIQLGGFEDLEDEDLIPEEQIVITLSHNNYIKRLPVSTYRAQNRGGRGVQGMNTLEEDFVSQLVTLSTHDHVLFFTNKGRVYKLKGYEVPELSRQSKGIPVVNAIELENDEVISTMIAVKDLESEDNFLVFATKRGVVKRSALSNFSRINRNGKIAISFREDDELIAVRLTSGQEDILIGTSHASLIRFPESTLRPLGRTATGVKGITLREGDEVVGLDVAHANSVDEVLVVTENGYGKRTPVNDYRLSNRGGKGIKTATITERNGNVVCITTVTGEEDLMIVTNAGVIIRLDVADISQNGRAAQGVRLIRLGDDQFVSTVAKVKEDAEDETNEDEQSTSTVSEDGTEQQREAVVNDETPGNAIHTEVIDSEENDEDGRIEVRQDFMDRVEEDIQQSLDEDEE
Description: Reactions were incubated at 37° C. for 30 min and then stopped by the addition of 10% SDS, filtered through 0.025 μm Millipore membrane filters in a 10 mM Tris-HCl buffer (pH 8), and electrophoresed in a 1% agarose TAE gel. Gels were stained with 0.5 μg/ml ethidium bromide and images were analyzed using densitometry (Image J, NIH).

[13] = Enterococcus faecium 824-05, read-out: MIC
[14] = Klebsiella pneumoniae cKP1, read-out: MIC
[15] = Staphylococcus aureus USA300-0114, read-out: MIC

SMILES: CCCCCCCCNC(C)C(O)c1ccc(SC(C)C)cc1 (stereo not drawn) [Suloctidil, suloctidil, reference compound]
- MIC [1, 13]: 8 µg/mL (≈ 23.7 µM)
- MIC [2]: did not elicit an antimicrobial response
- fold induction at 50 µM (E. faecium; planktonic E. faecium): 5.4
- fold induction at 50 µM ([3]; planktonic S. aureus): 2
- fold induction at 50 µM (K. pneumoniae; planktonic K. pneumoniae): 2.5
- fold induction at 50 µM ([4]; planktonic A. baumannii): 4.1
- activity in primary and confirmatory AK screens (P. aeruginosa; P. aeruginosa, 50 μM, cutoff 3-fold increase in AK): active
- fold induction at 50 µM (P. aeruginosa; planktonic P. aeruginosa): 6.8
- fold induction at 50 µM (E. cloacae; planktonic E. cloacae): 0.9
- fold induction at 50 µM (E. coli; planktonic E. coli): 1.9

SMILES: NC[C@H]1O[C@H](O[C@H]2[C@H](O)[C@@H](O[C@H]3O[C@H](CO)[C@@H](O)[C@H](N)[C@H]3O)[C@H](N)C[C@@H]2N)[C@H](O)[C@@H](O)[C@@H]1O [Kanamycin, kanamycin]
- MIC ([1]; Enterococcus faecium): > 256 µg/mL
- MIC (Staphylococcus aureus; Staphylococcus aureus): 16 µg/mL (≈ 33 µM)
- MIC (Staphylococcus aureus; Staphylococcus aureus, USA300): > 256 µg/mL
- MIC [5, 14]: 2 µg/mL (≈ 4.13 µM)
- MIC [6]: 2 µg/mL (≈ 4.13 µM)
- MIC ([2]; read-out: MIC): 256 µg/mL (≈ 528 µM)
- MIC ([7]; read-out: MIC): 2 µg/mL (≈ 4.13 µM)
- MIC (Escherichia coli 8295 [8]; read-out: MIC): 32 µg/mL (≈ 66 µM)
- Fold increase in AK signal ([9]; treatment 0.5×MIC): 1 fold
- Fold increase in AK signal ([9]; treatment 1.0×MIC): 1 fold
- Fold increase in AK signal ([10]; treatment 0.5×MIC): 1 fold
- Fold increase in AK signal ([10]; treatment 1.0×MIC): 1 fold
- Fold increase in AK signal (Escherichia coli 8295 [11]; treatment 0.5×MIC): 55 fold
- Fold increase in AK signal (Escherichia coli 8295 [11]; treatment 1.0×MIC): 70 fold

SMILES: Cc1cc(NS(=O)(=O)c2ccc(N)cc2)no1 [Sulfamethoxazole, sulfamethoxazole]
- MIC [1, 13]: > 256 µg/mL
- MIC (Staphylococcus aureus; Staphylococcus aureus): 2 µg/mL (≈ 7.9 µM)
- MIC (Staphylococcus aureus; [15]): > 256 µg/mL
- MIC [5, 14]: > 256 µg/mL
- MIC [6]: 8 µg/mL (≈ 31.6 µM)
- MIC ([2]; read-out: MIC): 256 µg/mL (≈ 1010 µM)
- MIC ([7]; read-out: MIC): > 256 µg/mL
- MIC (Escherichia coli 8295 [8]; read-out: MIC): > 256 µg/mL
- fold induction at 50 µM (E. faecium; 384-well format): 1
- fold induction at 50 µM ([3]; 384-well format): 0.7
- fold induction at 50 µM (K. pneumoniae; 384-well format): 0.6
- fold induction at 50 µM ([4]; 384-well format): 1.3
- fold induction at 50 µM (P. aeruginosa; 384-well format): 0.7
- fold induction at 50 µM (E. cloacae; 384-well format): 0.7
- fold induction at 50 µM (E. coli; 384-well format): 0.7

SMILES: CO/N=C(\C(=O)N[C@@H]1C(=O)N2C(C(=O)O)=C(CSc3nc(=O)c(=O)[nH]n3C)CS[C@H]12)c1csc(N)n1 [Ceftriaxone, ceftriaxone]
- MIC [1, 13]: > 256 µg/mL
- MIC (Staphylococcus aureus; Staphylococcus aureus): 2 µg/mL (≈ 3.61 µM)
- MIC (Staphylococcus aureus; [15]): > 256 µg/mL
- MIC [5, 14]: 2 µg/mL (≈ 3.61 µM)
- MIC [6]: 8 µg/mL (≈ 14.4 µM)
- MIC ([2]; read-out: MIC): 4 µg/mL (≈ 7.21 µM)
- MIC ([7]; read-out: MIC): 2 µg/mL (≈ 3.61 µM)
- MIC (Escherichia coli 8295 [8]; read-out: MIC): 2 µg/mL (≈ 3.61 µM)
- Fold increase in AK signal ([9]; treatment 0.5×MIC): 50 fold
- Fold increase in AK signal ([9]; treatment 1.0×MIC): 55 fold
- Fold increase in AK signal ([12]; treatment 0.5×MIC): 2 fold
- Fold increase in AK signal ([12]; treatment 1.0×MIC): 14 fold
- Fold increase in AK signal ([10]; treatment 0.5×MIC): 20 fold
- Fold increase in AK signal ([10]; treatment 1.0×MIC): 17 fold
- Fold increase in AK signal (Escherichia coli 8295 [11]; treatment 0.5×MIC): 51 fold
- Fold increase in AK signal (Escherichia coli 8295 [11]; treatment 1.0×MIC): 76 fold

SMILES: O=[N+]([O-])c1ccc(CCN2CCC(C(O)(c3ccccc3)c3ccccc3)CC2)cc1 [Compound 29, (1-(4-nitrophenethyl)piperidin-4-yl)diphenylmethanol]
- MIC (S. aureus): 64 µg/mL (≈ 154 µM)
- IC50 (S. aureus DNA gyrase): 632 µM

SMILES: CC(C)(C)c1ccc(CCN2CCC(C(O)(c3ccccc3)c3ccccc3)CC2)cc1 [Compound 23, (1-(4-(Tert-butyl)phenethyl)piperidin-4-yl)diphenylmethanol]
- MIC (S. aureus): 8 µg/mL (≈ 18.7 µM)
- IC50 (S. aureus DNA gyrase): 218 µM

SMILES: CC(C)(C)c1ccc(C(=O)N2CCC(C(O)(c3ccccc3)c3ccccc3)CC2)cc1 [Compound 27, (4-(tert-butyl)phenyl)(4-(hydroxydiphenylmethyl)piperidin-1-yl)methanone]
- MIC (S. aureus): > 256 µg/mL
- IC50 (S. aureus DNA gyrase): 218 µM

SMILES: CC1(C)S[C@@H]2[C@H](NC(=O)[C@H](N)c3ccccc3)C(=O)N2[C@H]1C(=O)O [Ampicillin, ampicillin]
- MIC ([1]; Enterococcus faecium): > 256 µg/mL
- MIC (Staphylococcus aureus; Staphylococcus aureus): 2 µg/mL (≈ 5.72 µM)
- MIC (Staphylococcus aureus; Staphylococcus aureus, USA300): > 256 µg/mL
- MIC ([5]; Klebsiella pneumoniae, CKP1): > 256 µg/mL
- MIC [6]: 256 µg/mL (≈ 733 µM)
- MIC [2]: > 256 µg/mL
- MIC [7]: > 256 µg/mL
- MIC (Escherichia coli 8295 [8]): 128 µg/mL (≈ 366 µM)
- Fold increase in AK signal (Escherichia coli 8295 [11]; treatment 0.5×MIC): 50 fold
- Fold increase in AK signal (Escherichia coli 8295 [11]; treatment 1.0×MIC): 74 fold

SMILES: CC(C)(C)c1cccc(CCN2CCC(C(O)(c3ccccc3)c3ccccc3)CC2)c1 [Compound 39, (1-(3-(Tert-butyl)phenethyl)piperidin-4-yl)diphenylmethanol]
- MIC (S. aureus): 16 µg/mL (≈ 37.4 µM)
- IC50 (S. aureus DNA gyrase): 218 µM

SMILES: OC(c1ccccc1)(c1ccccc1)C1CCN(CCc2ccc(-c3ccccc3)cc2)CC1 [Compound 32, (1-(2-([1,1′-biphenyl]-4-yl)ethyl)piperidin-4-yl)diphenylmethanol]
- MIC (S. aureus; S. aureus, MHB, strain not given, read-out: MIC): 8 µg/mL (≈ 17.9 µM)
- IC50 (S. aureus DNA gyrase): 179 µM

SMILES: CC(C)(C)c1ccc(C(O)CCCCN2CCC(C(O)(c3ccccc3)c3ccccc3)CC2)cc1 (stereo not drawn) [Compound 2, 1-(4-(tert-butyl)phenyl)-5-(4-(hydroxydiphenylmethyl)piperidin-1-yl)pentan-1-ol]
- MIC (S. aureus): 16 µg/mL (≈ 32.9 µM)
- IC50 (S. aureus DNA gyrase): 206 µM

SMILES: COc1ccc(CCN2CCC(C(O)(c3ccccc3)c3ccccc3)CC2)cc1 [Compound 28, (1-(4-methoxyphenethyl)piperidin-4-yl)diphenylmethanol]
- MIC (S. aureus): 256 µg/mL (≈ 638 µM)
- IC50 (S. aureus DNA gyrase): > 829 µM

SMILES: CCN(CC)CCOc1ccc(C(=C(Cl)c2ccccc2)c2ccccc2)cc1 [Clomiphene, clomiphene, reference compound]
- MIC [1, 13]: 8 µg/mL (≈ 19.7 µM)
- activity in AK Prestwick screen (E. faecium; E. faecium, 50 μM, cutoff 3-fold increase in AK): identified
